Test results as given in US5356794A, “Purified enzymatic preparation derived from chromobacterium violaceum, method for preparing it and its use in the production of α, β-dehydrotryptophanyl-peptides” (priority 1991, dated 1994).

What was measured:
Format in all cases: biochemical, Chromobacterium violaceum
[1] = system: L-Trp 2',3'-oxidase; experiment: Specificity of the reaction (conversion of amino acid derivatives and indole compounds); details: for effect of conversion of substrates with free α-amino group on the enzyme: after a few minutes, absorbance at 320 nm rises then decreases
Text: No conversion could be observed for the aromatic amino acids: N-acetyl-L-phenylalaninamide and N-acetyl-L-tyrosinamide. The same is the case when the indole ring is substituted: 5-hydroxyl L-Trp, N-formyl L-Trp and for the isomers of the D series: D-tryptophan and N-acetyl-D-tryptophan.
This phenomenon is much more rapid when the α-carboxyl functional group is not substituted (L-Trp, comp. I), and results in the formation of an unstable imine (II) which is hydrolysed to give rise to the α-keto compounds (indole-3-pyruvic acid (III) and its amide homologue respectively)--FIG. 6--. It is therefore preferable to block the α-amino functional group so as to avoid any isomerisation phenomenon and to ensure greater stability of the dehydro compound.

[2] = system: L-Trp 2',3'-oxidase; experiment: Kinetics of dehydrogenation of substrates by purified L-Trp 2',3'-oxidase (appearance of dehydro product at 330 nm); details: substrate of L-Trp 2',3'-oxidase, in the presence of catalase
Description: Measurements of the specific activity of the enzyme as well as all the kinetic experiments in the steady state, were performed under the standard conditions defined below:
Substrate: 1 mMN-acetyl-L-tryptophanamide (NATA)
Buffer: 50 mM succinate, pH 5.5
by directly monitoring the appearance of the dehydro product at 330 nm (FIG. 3). The specific activity (As) of fraction Q1 is calculated on the basis of a molar extinction coefficient at 330 nm of 18.8 mM^-1.cm^-1 determined in the laboratory (against ε330 =19.89 mM^-1.cm^-1 in the literature; TAKAI et al. mentioned above). NATA, which represents the smallest peptide chain possible, is used as reference substrate for the enzymatic reaction. The specific activity of the preparation (As) is estimated at 39.5±3.1 units for NATA (an enzymatic unit represents a mole of product formed per second per mole of heme).
The dehydrogenation of NATA was monitored as a function of the pH (pH 3-5, 6-8) at a temperature of 30° C. in 50 mM succinate buffer, pH 5.6. The reaction products are analysed and purified by reversed-phase HPLC and then freeze-dried and analysed by mass spectrometry (desorption by chemical ionisation: DCI). ΔNATA is the only product of the enzymatic reaction which is characterised by HPLC (single peak, γmax 333 nm) and by mass spectrophotometry (MH^+ =244).
The procedure is as in Example 1.7).
All the reactions were performed in the presence of catalase. In each case, the kinetic constants (Kcat and Km) are calculated so as to evaluate the efficiency of the enzyme for each type of substrate.

[3] = system: L-Trp 2',3'-oxidase; experiment: Conversion of Trp in proteins by L-Trp 2',3'-oxidase in 24 hours; details: standard conditions, E/S ≈ 1/1000, values given as a guide
Description: (*): Values given as a guide, giving an idea of the conversion of Trp in
the proteins in 24 hours, under the standard conditions defined in Exampl
As specified above, the accessibility of the tryptophanyl residues, both with respect to the indolyl ring and with respect to the Cα and Cβ protons, plays a major role.

N[C@@H](Cc1c[nH]c2ccc(O)cc12)C(=O)O [5-hydroxyl L-Trp]
conversion by the enzyme (specificity of the reaction) [1]: No conversion

N[C@H](Cc1c[nH]c2ccccc12)C(=O)O [D-tryptophan]
conversion by the enzyme (specificity of the reaction) [1]: No conversion

N[C@@H](Cc1c[nH]c2ccccc12)C(=O)O [L-tryptophan]
effect of conversion of substrates with free α-amino group on the enzyme [1]: complete inhibition of the enzyme

NC(=O)[C@@H](N)Cc1c[nH]c2ccccc12 [L-tryptophanamide]
effect of conversion of substrates with free α-amino group on the enzyme [1]: complete inhibition of the enzyme

CC(=O)N[C@H](Cc1c[nH]c2ccccc12)C(=O)O [N-acetyl-D-tryptophan]
conversion by the enzyme (specificity of the reaction) [1]: No conversion

O=CN[C@@H](Cc1c[nH]c2ccccc12)C(=O)O [N-formyl L-Trp]
conversion by the enzyme (specificity of the reaction) [1]: No conversion

CSCC[C@H](NC(=O)[C@H](Cc1c[nH]c2ccccc12)NC(=O)CCNC(=O)OC(C)(C)C)C(=O)N[C@@H](CC(=O)O)C(=O)N[C@@H](Cc1ccccc1)C(N)=O [Pentagastrin]
Kcat/Km [2]: 10^6 M^-1.s^-1 | Kcat ([2]; 30° C., 50 mM succinate buffer): 32 s⁻¹ | Km ([2]; 30° C., 50 mM succinate buffer): 26 µM

O=C(O)CCc1c[nH]c2ccccc12 [indole-3-propionic acid]
conversion by the enzyme (specificity of the reaction) [1]: oxidised to indole-3-acrylic acid

NCCc1c[nH]c2ccccc12 [tryptamine]
conversion by the enzyme (specificity of the reaction) [1]: no reaction

β-Lactoglobulin: protein substrate, 162 residues, Trp19-Trp51, 32 kDa
conversion of Trp in the proteins [3]: 2 % of conversion

B1: Catalase: protein substrate, 506 residues, six Trp, 232 kDa (EC 1.11.1.6) (protein, UniProt P00432 2-527, looked up)
Catalase: ADNRDPASDQMKHWKEQRAAQKPDVLTTGGGNPVGDKLNSLTVGPRGPLLVQDVVFTDEMAHFDRERIPERVVHAKGAGAFGYFEVTHDITRYSKAKVFEHIGKRTPIAVRFSTVAGESGSADTVRDPRGFAVKFYTEDGNWDLVGNNTPIFFIRDALLFPSFIHSQKRNPQTHLKDPDMVWDFWSLRPESLHQVSFLFSDRGIPDGHRHMNGYGSHTFKLVNANGEAVYCKFHYKTDQGIKNLSVEDAARLAHEDPDYGLRDLFNAIATGNYPSWTLYIQVMTFSEAEIFPFNPFDLTKVWPHGDYPLIPVGKLVLNRNPVNYFAEVEQLAFDPSNMPPGIEPSPDKMLQGRLFAYPDTHRHRLGPNYLQIPVNCPYRARVANYQRDGPMCMMDNQGGAPNYYPNSFSAPEHQPSALEHRTHFSGDVQRFNSANDDNVTQVRTFYLKVLNEEQRKRLCENIAGHLKDAQLFIQKKAVKNFSDVHPEYGSRIQALLDKYNEEKPKNAVHTYVQHGSHLSAREKANL
conversion of Trp in the proteins [3]: 12 % of conversion
